Reference: ChEMBL document CHEMBL5365409, “Novel series of tunable µOR modulators with enhanced brain penetration for the treatment of opioid use disorder, pain and neuropsychiatric indications” (Bioorg Med Chem Lett, 2023)
pEC50, pIC50: −log10 of the molar value. Activity calls are given as the source filed them. No cut-off for these calls is given here.

Columns and labels:
[1] = molecular target: T1, Mu-type opioid receptor (Homo sapiens, UniProt P35372); assay: Agonist activity at human mu opioid receptor stably transfected in CHO cells by cAMP assay; type: functional, cell-based
T1 sequence (P35372 whole entry): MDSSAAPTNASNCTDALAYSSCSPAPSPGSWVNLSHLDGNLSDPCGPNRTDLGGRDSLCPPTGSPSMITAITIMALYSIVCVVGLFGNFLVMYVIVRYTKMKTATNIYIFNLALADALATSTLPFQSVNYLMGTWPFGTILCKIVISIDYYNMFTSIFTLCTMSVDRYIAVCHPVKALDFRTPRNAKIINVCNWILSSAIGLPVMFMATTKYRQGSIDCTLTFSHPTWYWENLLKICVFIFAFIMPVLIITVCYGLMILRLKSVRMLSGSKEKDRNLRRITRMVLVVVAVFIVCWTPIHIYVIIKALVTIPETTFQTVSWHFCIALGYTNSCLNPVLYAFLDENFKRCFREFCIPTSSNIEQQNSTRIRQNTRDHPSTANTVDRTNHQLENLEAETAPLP

[2] = molecular target: T1, Mu-type opioid receptor; assay: Agonist activity at human mu opioid receptor stably transfected in CHO cells assessed as maximal response by cAMP assay relative to DAMGO; type: functional, cell-based
[3] = Ratio of drug concentration in brain to plasma of Sprague-Dawley rat at 30 mg/kg, po measured after 1 hr; type: ADME, organism-based
[4] = Drug concentration in Sprague-Dawley rat brain at 30 mg/kg, po and measured after 1 hr; type: ADME, organism-based; conditions: read-out: Ct
[5] = Plasma concentration in Sprague-Dawley rat at 30 mg/kg, po and measured after 1 hr; type: ADME, organism-based
[6] = tested on: Rattus norvegicus; assay: Analgesic activity in Sprague-Dawley rat assessed as increase in withdrawal latency at 10 mg/kg, sc by hot plate assay; type: functional, organism-based
[7] = molecular target: T1, Mu-type opioid receptor; assay: Antagonist activity at human mu opioid receptor stably transfected in CHO cells assessed as decrease in DAMGO induced receptor activation by cAMP assay; type: functional, cell-based
[8] = tested on: Rattus norvegicus; assay: Antianalgesic activity in Sprague-Dawley rat assessed as decrease in (1R,2R)-N-((S)-2-(dimethylamino)-3-(4-hydroxy-2-methylphenyl)propyl)-2-methyl-2-phenylcyclopropane-1-carboxamide induced analgesic effect by measuring withdrawal latency at 10 to 20 mg/kg, sc by hot plate assay; type: functional, organism-based; conditions: dose 10-20 mg/kg
[9] = molecular target: T1, Mu-type opioid receptor; assay: Antagonist activity at human mu opioid receptor stably transfected in CHO cells assessed as maximal inhibition of DAMGO induced receptor activation by cAMP assay relative to naltrexone; type: functional, cell-based; conditions: filed as antagonist
[10] = tested on: Rattus norvegicus; assay: Analgesic activity in Sprague-Dawley rat assessed as increase in withdrawal latency at 0.3 to 10 mg/kg, sc by hot plate assay; type: functional, organism-based; conditions: dose 0.3-10 mg/kg, time <= 90.0 min
[11] = tested on: Rattus norvegicus; assay: Antianalgesic activity in Sprague-Dawley rat assessed as decrease in (1R,2R)-N-((S)-2-(dimethylamino)-3-(4-hydroxy-2-methylphenyl)propyl)-2-methyl-2-phenylcyclopropane-1-carboxamide induced analgesic effect by measuring withdrawal latency at 10 mg/kg, sc by hot plate assay; type: functional, organism-based
[12] = In vivo receptor occupancy at mu opioid receptor in Sprague-Dawley rat brain at 10 mg/kg, sc measured by LC/MS/MS analysis relative to control; type: functional

Compound: C[C@@H](OC(=O)NC[C@@H](Cc1ccc(O)cc1)N(C)C)c1ccccc1
- pEC50 [1]: 6.02

Compound: CN(C)[C@H](CNC(=O)N[C@H](c1ccccc1)C1CC1)Cc1ccc(O)cc1
- pEC50 [1]: 8.14

Compound: C[C@@H](OC(=O)NC[C@H](Cc1ccc(O)cc1)N(C)C)c1ccccc1
- pEC50 [1]: 7.21

Compound: CN(C)[C@H](CNC(=O)N[C@@H](c1ccccc1)C1CC1)Cc1ccc(O)cc1
- pEC50 [1]: 6.98

Compound: C[C@@H](CC(=O)NC[C@H](Cc1c(F)cc(O)cc1F)N(C)C)c1ccccc1
- Emax [2]: 33%
- BPR [3]: 72%
- concentration at 1 h [4]: 3.9 ng/g
- concentration at 1 h [5]: 5.4 ng/mL

Compound: CN(C)[C@H](CNC(=O)[C@@H]1C[C@]1(C)c1ccccc1)Cc1ccc(O)cc1
- Activity [6]: inactive
- pIC50 [7]: 6.96
- pEC50 [1]: < 5.52
- Activity [8]: Active
- Imax [9]: 100%

Compound: CN(C)[C@@H](CNC(=O)N[C@@H](c1ccccc1)C1CC1)Cc1ccc(O)cc1
- pEC50 [1]: 6.61

Compound: CN(C)[C@H](CNC(=O)O[C@H](c1ccccc1)C1CC1)Cc1ccc(O)cc1
- Emax [2]: 26%
- pEC50 [1]: 6.11

Compound: C[C@H](NC(=O)NC[C@H](Cc1ccc(O)cc1)N(C)C)c1ccccc1
- Emax ([2]; filed as agonist): 48%
- BPR [3]: 17%
- concentration at 1 h [4]: 33 ng/g
- pEC50 [1]: 7.68
- concentration at 1 h [5]: 190 ng/mL

Compound: C[C@H](CC(=O)NC[C@H](Cc1ccc(O)cc1)N(C)C)c1ccccc1
- Emax ([2]; filed as agonist): 68%
- BPR [3]: 125%
- concentration at 1 h [4]: 29.2 ng/g
- concentration at 1 h [5]: 23.3 ng/mL

Compound: CN(C)[C@@H](CNC(=O)N[C@H](c1ccccc1)C1CC1)Cc1ccc(O)cc1
- pEC50 [1]: 6.46

Compound: Cc1cc(O)ccc1C[C@@H](CNC(=O)[C@@H]1C[C@@]1(C)c1ccccc1)N(C)C
- Emax ([2]; filed as agonist): 100%
- pEC50 [1]: 9.48

Compound: CN(C)[C@H](CNC(=O)[C@H]1C[C@]1(C)c1ccccc1)Cc1ccc(O)cc1
- pIC50 [7]: 6.68
- pEC50 [1]: < 5.52
- Imax [9]: 100%

Compound: C[C@@H](CC(=O)NC[C@H](Cc1ccc(O)cc1)N(C)C)c1ccccc1
- Emax ([2]; filed as agonist): 68%
- BPR [3]: 85%
- concentration at 1 h [4]: 14.4 ng/g
- concentration at 1 h [5]: 16.9 ng/mL

Compound: CN(C)[C@H](CNC(=O)[C@@H]1C[C@@]1(C)c1ccccc1)Cc1ccc(O)cc1
- Emax ([2]; filed as agonist): 90%
- Activity [10]: Dose-Dependent Effect
- BPR [3]: 89%
- concentration at 1 h [4]: 3.3 ng/g
- pEC50 [1]: 9.06
- concentration at 1 h [5]: 3.7 ng/mL

Compound: C[C@H](OC(=O)NC[C@@H](Cc1ccc(O)cc1)N(C)C)c1ccccc1
- pEC50 [1]: < 5.52

Compound: C[C@H](OC(=O)NC[C@H](Cc1ccc(O)cc1)N(C)C)c1ccccc1
- BPR [3]: 323%
- concentration at 1 h [4]: 481 ng/g
- pEC50 [1]: 6.74
- concentration at 1 h [5]: 149 ng/mL

Compound: CN(C)[C@H](CNC(=O)[C@H]1C[C@@]1(C)c1ccccc1)Cc1ccc(O)cc1
- pIC50 [7]: < 5.52
- pEC50 [1]: < 5.52

Compound: CN(C)[C@H](CNC(=O)[C@@H]1C[C@]1(C)c1ccccc1)Cc1ccc(O)cc1Cl
- Activity [11]: Active
- Activity [12]: 70%
- pIC50 [7]: 7.54
- pEC50 [1]: < 5.52
- Imax [9]: 100%

Compound: Cc1cc(O)cc(C)c1C[C@@H](CNC(=O)[C@@H]1C[C@@]1(C)c1ccccc1)N(C)C
- Activity [6]: inactive
- Emax [2]: 27%
- pEC50 [1]: 8.70
- Activity [8]: Active
